5 molecules from patent publication US6710074B2, “Compound having antimalarial activity” (Japan Science and Technology Corporation, priority 2000, dated 2004) can be followed below.

One test deals with P. falciparum. Nature of the test: Growth inhibition test of P. falciparum. In kind it is cell-based, Plasmodium falciparum. The following applies: for Chemotherapeutic coefficient IC50/EC50: IC50 of mouse FM3A cells / EC50 of P. falciparum, index of selective toxicity; for EC50: Plasmodium falciparum. On the procedure:
P. Falciparum FCR-3 strain (ATCC30932) and P. Falciparum Honduras-i strain (ATCC30935), both of which are Plasmodium falciparum, were used as test malaria parasites for measuring antimalarial activity. A filter-sterilized RPMI1640 medium was adjusted to be pH 7.4 and added with human serum such that the serum made up 10% of the medium, and used as a test medium. The above-mentioned P. falciparum were cultured in O2at a concentration of 5%, CO2 at a concentration of 5% and N2 at a concentration of 90%, at a temperature of 36.5° C. Hematocrit value (ratio of volume of erythrocytes in erythrocyte suspension) used was adjusted to be 5%. Initial infection rate of P. falciparum at the beginning of culture was adjusted to be 0.1%. A 24-well plate was used for culture and a medium was replaced everyday, and cultures were transferred at infection rate of 4%. A thin-layer smear was constructed and subjected to Giemsa staining which had been originally developed for malarial test, or Diff-Qick staining, and followed by measurement under a microscope (oil immersion, 1000×), and then infection rate of P. falciparum was calculated according to a formula mentioned below. [formula]
Cultured erythrocytes infected with P. falciparum were gathered by centrifugation and washed with a medium containing serum, then noninfected erythrocytes were added, and a culture liquid for P. falciparum at initial infection rate of 0.3% was prepared. Hematocrit value in this case was adjusted to be 3%. The compound according to the present invention used for a test and represented by the formula (II) and […] of positive control drug (quinine, artemisinin, artesunate, mefloquine) were dissolved into sterilized water, N,N-dimethylformamide (DMF) or dimethylsulfoxide (DMSO), and a sample solution at prescribed concentration was prepared. 5 to 10 μl of the sample solution was added to each well of a 24-well plate. The sample solution was duplicated or triplicated. For control, sterilized water, DMF or DMSO was added by 10 μl per well. Next, the above-mentioned culture liquid for P. falciparum prepared to be at initial infection rate of 0.3% was added by 990 to 995 μl each, and uniformly suspended in media by pipetting gently. After cultured for 72 hours in a CO2—O2—N2 (5%, 5%, 90%) incubator, a thin-layer smear was constructed for each well of the culture plate, Giemsa staining or Diff-Qick staining was conducted, followed by measurement under a microscope (oil immersion, 1000×), and then infection rates of P. falciparum in a group supplemented with a test liquid and in controls were calculated. The growth inhibition rate was calculated according to a formula mentioned below based on the infection rate of P. falciparum as calculated above, and 50% growth inhibitory concentration (EC50) was calculated. [formula] […]
a: initial infection rate b: infection rate of a sample solution after 72 hours c: infection rate of a control after 72 hours
Antimalarial activity of a sample was evaluated based on EC50 and IC50 values of the sample of P. falciparum and mouse FM3A cells. Chemotherapeutic coefficient used as an index of selective toxicity against P falciparum was calculated by a formula mentioned below and drug efficacy was assessed. [formula]

Another test concerns mouse FM3A cells. Description: Growth inhibition test of mouse FM3A cells. In kind it is cell-based. The following applies: for IC50: read-out: 50% growth inhibitory concentration IC50. On the procedure:
An F28-7 strain, a wild-type strain of mouse breast cancer-derived FM3A cells was used. Immobilized fetal bovine serum was added to an ES medium such that the serum made up 2% of the medium, and culture was conducted in CO2 at a concentration of 5%, and at 37° C. Doubling time of the F28-7 strain of FM3A cells under this condition was about 12 hours. Cells which had been precultured and entered to logarithmic growth phase were diluted to be 5×10^4 cells/ml in the medium. The same sample solution as in the above-mentioned Example 2-2 was used. 5 to 10 μl of the sample solution was added to each well of a 24-well plate (when medium and the like were added, the final concentration became 1×10^−4˜1×10^−5 M). The sample solution was duplicated or triplicated, and wells added with 10 μl of sterilized water, DMF or DMSO were prepared at the same time as controls. Next, a prepared suspension of cultured cells was added by 990 to 995 μl each, and uniformly suspended in media by pipetting gently. After cultured for 48 hours, the number of cells in each well was counted by a cell counter (CC-108; Toa. Medical Electrics), and growth rate was calculated by a formula mentioned below and 50% growth inhibitory rate (IC50) was calculated. The cell proliferation inhibiting activity was calculated according to the number of cells in wells supplemented with the sample solution and in controls. […] on this, cell toxicity of the sample was evaluated. [formula]
A: the number of cells at the beginning
B: the number of cells in a control after 2 days
C: the number of cells 2 days after supplementation of a sample

Where [1] appears, read: Erythrocyte, P. falciparum in human erythrocytes, cultured for 72 hours, infection rate by smear staining, read-out: 50% growth inhibitory concentration EC50.
Where [2] appears, read: F28-7 strain of mouse breast cancer-derived FM3A cells, cultured for 48 hours, cell count.

Molecules are shown by their SMILES. Read-outs that look alike come from different tables or passages of the source.

With `C[C@@H]1CC[C@H]2[C@@H](C)C(=O)O[C@@H]3O[C@@]4(C)CC[C@@H]1[C@]32OO4` [Artemisinin, artemisinin], in the test on P. falciparum, the “Chemotherapeutic coefficient IC50/EC50” value is given as 1,300. In the test with P. falciparum (setting [1]), the EC50 came to 7.9 nM. In addition, the IC50 in the test with mouse FM3A cells (setting [2]) was determined as 10000 nM.

For the molecule `C[C@H]1[C@H](OC(=O)CCC(=O)O)O[C@@H]2O[C@@]3(C)CC[C@H]4[C@H](C)CC[C@@H]1[C@@]24OO3` [Artesunate, artesunate], the “Chemotherapeutic coefficient IC50/EC50” value with P. falciparum is recorded as 180. Further, the EC50 in the test with P. falciparum (Erythrocyte, 72 h, read-out: 50% growth inhibitory concentration EC50) was found to be 17 nM. Besides, the IC50 in the test on mouse FM3A cells (Mus musculus, FM3A, 48 h) turned out to be 3000 nM.

On to `COC(=O)C(C)C1CCC(=O)C2CCC3(C)OOC21C(O)O3` (stereo not drawn) [Compound of the present invention, 12-hidroxy-2-(1-methoxycarbonylethyl)-5-oxo-10,11,13-trioxatricyclo[7.2.0.0^1,6]tridecane], for which the “Chemotherapeutic coefficient IC50/EC50” value in the test on P. falciparum is reported as >1,000. Also, the “selective toxicity against P. falciparum compared with that against mouse FA3A cells” value in the test with P. falciparum (P. falciparum versus mouse FA3A cells) is listed as “more than 1,000 times”. Also, the EC50 in the test on P. falciparum (setting [1]) and in the test on P. falciparum (read-out: inhibits the growth of drug-resistant P. falciparum at a mol concentration of) was 39 nM each time. Moreover, in the test with mouse FM3A cells (setting [2]), the IC50 was ≥ 24000 nM. The growth result with mouse FM3A cells (mouse FM3A cells, printed below the IC50 cell 2.4 × 10^−5 M) is “(78% growth)”.

For the molecule `OC(c1cc(C(F)(F)F)nc2c(C(F)(F)F)cccc12)C1CCCCN1` (stereo not drawn) [Mefloquine, mefloquine], in the test on P. falciparum, the “Chemotherapeutic coefficient IC50/EC50” value is reported as 90. The EC50 with P. falciparum (setting [1]) was determined as 32 nM. Besides, the IC50 in the test on mouse FM3A cells (setting [2]) is 2900 nM.

On to `C=C[C@H]1C[N@@]2CC[C@H]1C[C@H]2[C@H](O)c1ccnc2ccc(OC)cc12` [Quinine, quinine], for which the “Chemotherapeutic coefficient IC50/EC50” value in the test with P. falciparum amounted to 910. For the same molecule, in the test with P. falciparum (setting [1]), the EC50 stood at 110 nM. Further, in the test on mouse FM3A cells (setting [2]), the IC50 turned out to be 100000 nM.
